The source of these data is publication PMC12951568, “Identifying Structural Factors Governing the Photodynamic Activity of Phthalocyanines” (Journal of Medicinal Chemistry, 2026).

Structures are written as SMILES. Read-outs that look alike come from different tables or passages of the source.

Series [1] can be described thus: Log P, partition between n-octanol and PBS. The format is physicochemical. The method, then: 400 μL portion of n-octanol and 400 μL of PBS buffer were mixed in a plastic Eppendorf vial. Then, 20 μL of the 100 μM stock solution of the sample (see above) was added to this mixture, vortexed for 5 min at rt, and then centrifuged for 10 min (10 000 rpm, rt). 50 μL of each of these layers was taken into 2.5 mL of DMF in a quartz cuvette, and their emission spectra (excitation wavelengths in Table ) were recorded. The log P value was then computed using the area under the curve of the emission spectra of n-octanol (F oct) and PBS buffer (F PBS) layers as follows: logP=log(Foct/FPBS) Triplicate measurements were performed, and the data reported are the mean of the obtained results.

The subject of series [2] is HeLa (human cervical carcinoma). The settings on record: ref number not given, cited from earlier work.
Series [3] in a line: Absorption and fluorescence emission spectra in DMF. The settings on record: for ε, extinction coefficient / λA, absorption maximum in the Q-band / λF, fluorescence emission maximum: in DMF. The format is physicochemical. The method, then: An absorption spectrum of 2.475 mL of solvent (water, DMF, or PBS) was taken (i.e., absorption spectrum of baseline); then, 25 μL of stock solution was added to reach the final concentration of 1 μM in the cuvette, and the absorption and emission spectra were taken. Baseline of the solvent was subtracted from the obtained absorption spectrum to get the final absorption spectrum of the sample.

Series [4] can be described thus: Quantum yield of singlet oxygen production, comparative method with DPBF scavenger. The note with it: in DMF, ZnPc as reference. The format is physicochemical. The method, then:
Eight μL of the 100 μM stock solution of the dye in DMF (or DMF + water or water; see above) was added. A xenon lamp (100 W, ozone free XE DC short arc lamp, New port) was used to irradiate the sample while stirring. The incident light was filtered through a water filter (6 cm) and cut off filter OG530 eliminating heat and light under 523 nm, respectively. […] The decrease of DPBF in solution with irradiation time was monitored at 415 nm. The values of ΦΔ of the dyes were calculated by the following equation: φΔS=φΔ[…] is the slope of the plot of the dependence of ln([…] 0 and A t being the absorbances of the DPBF at 415 nm before irradiation and after irradiation time t, respectively. I aT is the total amount of light absorbed by the dye sample. Superscripts R and S indicate the reference and sample, respectively. I aT is calculated as a sum of intensities of the absorbed light I a at wavelengths from 523 to 850 nm (step 0.5 nm). Light under 523 nm is completely filtered by an OG530 filter, and light above 850 nm is not absorbed by the studied dye sample. I a at a given wavelength is calculated using Beer-Lambert'[…]) where I 0 is transmittance of the filter at the given wavelength and A is the absorbance of the dye at this wavelength. All experiments were performed three times, and the data presented is the mean value of the three obtained results with estimated error ± 10%.

Series [5] addresses bovine serum albumin (BSA) (Bos taurus, UniProt P02769). The series is described as follows: Interaction with bovine serum albumin (absorption and emission spectra in PBS). The format is binding. The note with it: 1 μM Pc in PBS, BSA 17.5, 35 and 100 μM.
A short description of series [6]: Fluorescence quantum yield, comparative method. The note with it: in DMF; ZnPc as reference. The format is physicochemical. The method, then: The fluorescence quantum yields (ΦF) were determined by a comparative method with ZnPc as the reference (ΦF = 0.32 in THF). The ΦF values were calculated using the following formula: ϕFS=ϕFR(F^S/F^R)(1−10^−A^R/1−10^−A^S)(η^S/η^R)^2 where F is the integrated area under the emission spectrum and A is the absorbance at the excitation wavelength. Superscripts R and S indicate the reference and sample, respectively. η stands for the refractive index of the solvent. Absorption in the Q-band was kept below 0.05 to eliminate the inner filter effect. Excitation wavelengths were the same as those used for emission spectra (see above). The emission wavelengths were set to their emission maxima to avoid exceeding the detector limit with stimated error ± 15%.

A short description of series [7]: Fluorescence lifetime in DMF. The format is physicochemical. The source says: 1 Photophysical Data of Investigated Derivatives in DMF ^a | column: τF1/ns; τF2/ns
The mark [8] stands for this setting: partition coefficient between 1-octanol and PBS.

Chain of bovine serum albumin (BSA) (P02769 25-607): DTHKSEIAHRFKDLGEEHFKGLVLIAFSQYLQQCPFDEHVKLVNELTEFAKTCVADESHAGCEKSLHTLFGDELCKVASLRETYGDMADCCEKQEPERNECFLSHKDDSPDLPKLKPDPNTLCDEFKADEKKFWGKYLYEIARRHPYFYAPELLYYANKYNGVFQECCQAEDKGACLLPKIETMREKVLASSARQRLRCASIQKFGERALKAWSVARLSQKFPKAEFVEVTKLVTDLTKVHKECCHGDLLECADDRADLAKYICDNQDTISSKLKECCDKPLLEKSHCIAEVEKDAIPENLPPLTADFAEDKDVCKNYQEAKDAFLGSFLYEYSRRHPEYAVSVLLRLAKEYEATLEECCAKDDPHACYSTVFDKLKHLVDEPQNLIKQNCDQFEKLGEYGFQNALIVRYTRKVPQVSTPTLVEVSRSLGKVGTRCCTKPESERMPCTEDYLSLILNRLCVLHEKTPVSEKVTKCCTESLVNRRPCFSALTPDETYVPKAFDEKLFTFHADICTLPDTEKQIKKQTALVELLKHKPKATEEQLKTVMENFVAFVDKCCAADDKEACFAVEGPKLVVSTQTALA

On to `O=C([O-])c1cc(C(=O)[O-])cc(-c2nc3c(nc2-c2cc(C(=O)[O-])cc(C(=O)[O-])c2)C2=Nc4c5nc(-c6cc(C(=O)[O-])cc(C(=O)[O-])c6)c(-c6cc(C(=O)[O-])cc(C(=O)[O-])c6)nc5c5[n]4[Zn][n]4c(c6nc(-c7cc(C(=O)[O-])cc(C(=O)[O-])c7)c(-c7cc(C(=O)[O-])cc(C(=O)[O-])c7)nc6c4=NC4=NC(=N5)c5nc(-c6cc(C(=O)[O-])cc(C(=O)[O-])c6)c(-c6cc(C(=O)[O-])cc(C(=O)[O-])c6)nc54)=NC3=N2)c1.[Na+].[Na+].[Na+].[Na+].[Na+].[Na+].[Na+].[Na+].[Na+].[Na+].[Na+].[Na+].[Na+].[Na+].[Na+].[Na+]` [A5Zn], for which the “Log P” value in series [1] (setting [8]) is “–3.27”. In series [2] (12 h incubation, Xe-lamp 15 min, λ > 570 nm, 11.2 J/cm^2, mean ± SD, determined previously under the same conditions at the same workplace and published, read-out: EC50 (nM) HeLa), the EC50 (as a rule, the concentration that produces a half-maximal response) is 5700 ± 1100 nM. Also, in series [3], the “ε, extinction coefficient” value is reported as 138 740 M^–1cm^–1; the “λA, absorption maximum in the Q-band” value was found to be 659 nm; the “λF, fluorescence emission maximum” value was determined as 675 nm. In addition, the “ΦΔ, quantum yield of singlet oxygen production” value (“ΦΔ, quantum yield” below) in series [4] turned out to be 0.21. Besides, in series [5], the “Interaction with BSA: disaggregation/monomerization and changes in absorption and fluorescence emission spectra” value is “slight bathochromic shift in the Q-band accompanied by partial quenching of the excited states”; the “quenching of excited states upon BSA addition (decrease in Q-band maximum and fluorescence intensity)” value is reported as “significant”. In addition, the “ΦF, fluorescence quantum yield” value in series [6] is on record as 0.03.
Consider `O=S(=O)([O-])c1ccc(Oc2ccc3c(c2)C2=Cc4c5ccc(Oc6ccc(S(=O)(=O)[O-])c7cccnc67)cc5c5[n]4[Zn][n]4c(c6ccc(Oc7ccc(S(=O)(=O)[O-])c8cccnc78)cc6c4=CC3=N2)=CC2=NC(=C5)c3ccc(Oc4ccc(S(=O)(=O)[O-])c5cccnc45)cc32)c2ncccc12.[Na+].[Na+].[Na+].[Na+]` [A6Zn], for which the “Log P” value in series [1] (setting [8]) was “–2.89”. Also, in series [7], the “τF1, fluorescence lifetime (relative amplitude in brackets)” value was found to be 3.14 ns. In addition, in series [3], the “ε, extinction coefficient” value is given as 122 420 M^–1cm^–1; the “λA, absorption maximum in the Q-band” value was 681 nm; the “λF, fluorescence emission maximum” value worked out at 692 nm. The “ΦΔ, quantum yield” value in series [4] stood at 0.58. Moreover, the “Interaction with BSA: disaggregation/monomerization and changes in absorption and fluorescence emission spectra” value in series [5] is “partial”. Besides, in series [6], the “ΦF, fluorescence quantum yield” value turned out to be 0.28.
In the case of `C[n+]1cccc(Oc2ccc3c(c2)C2=NC3=Nc3c4cc(Oc5ccc[n+](C)c5)ccc4c4[n]3[Zn][n]3c(c5ccc(Oc6ccc[n+](C)c6)cc5c3=NC3=NC(=N4)c4cc(Oc5ccc[n+](C)c5)ccc43)=N2)c1` [C5Zn], the “Interaction with BSA: disaggregation/monomerization and changes in absorption and fluorescence emission spectra” value in series [5] is listed as “slight decrease in the absorption band (without a shift in the spectrum) but was accompanied by a slight increase in the fluorescence intensity”.
For the compound `Cc1cc(OCc2cn(CCOCCOCCO)nn2)c(Oc2cc3c(cc2Oc2c(OCc4cn(CCOCCOCCO)nn4)cc(C)cc2OCc2cn(CCOCCOCCO)nn2)C2=Nc4c5cc(Oc6c(OCc7cn(CCOCCOCCO)nn7)cc(C)cc6OCc6cn(CCOCCOCCO)nn6)c(Oc6c(OCc7cn(CCOCCOCCO)nn7)cc(C)cc6OCc6cn(CCOCCOCCO)nn6)cc5c5[n]4[Zn][n]4c(c6cc(Oc7c(OCc8cn(CCOCCOCCO)nn8)cc(C)cc7OCc7cn(CCOCCOCCO)nn7)c(Oc7c(OCc8cn(CCOCCOCCO)nn8)cc(C)cc7OCc7cn(CCOCCOCCO)nn7)cc6c4=NC4=NC(=N5)c5cc(Oc6c(OCc7cn(CCOCCOCCO)nn7)cc(C)cc6OCc6cn(CCOCCOCCO)nn6)c(Oc6c(OCc7cn(CCOCCOCCO)nn7)cc(C)cc6OCc6cn(CCOCCOCCO)nn6)cc54)=NC3=N2)c(OCc2cn(CCOCCOCCO)nn2)c1` [N6Zn], the EC50 in series [2] (same irradiation conditions, previously published per Table 2, read-out: EC50 (HeLa)) was 69700 nM. In series [7], the “τF1, fluorescence lifetime (relative amplitude in brackets)” value was 1.04 (3%) ns and the “τF2, fluorescence lifetime (relative amplitude in brackets)” value is listed as 3.17 (97%) ns. Further, in series [3], the “ε, extinction coefficient” value is 237 520 M^–1cm^–1; the “λA, absorption maximum in the Q-band” value was determined as 681 nm; the “λF, fluorescence emission maximum” value is given as 690 nm. For the same compound, in series [4], the “ΦΔ, quantum yield” value turned out to be 0.46. The “ΦF, fluorescence quantum yield” value in series [6] is reported as 0.26.
With `Cc1cc(OCc2cn(CCOCCOCCO)nn2)c(Oc2nc3c(nc2Oc2c(OCc4cn(CCOCCOCCO)nn4)cc(C)cc2OCc2cn(CCOCCOCCO)nn2)C2=Nc4c5nc(Oc6c(OCc7cn(CCOCCOCCO)nn7)cc(C)cc6OCc6cn(CCOCCOCCO)nn6)c(Oc6c(OCc7cn(CCOCCOCCO)nn7)cc(C)cc6OCc6cn(CCOCCOCCO)nn6)nc5c5[n]4[Zn][n]4c(c6nc(Oc7c(OCc8cn(CCOCCOCCO)nn8)cc(C)cc7OCc7cn(CCOCCOCCO)nn7)c(Oc7c(OCc8cn(CCOCCOCCO)nn8)cc(C)cc7OCc7cn(CCOCCOCCO)nn7)nc6c4=NC4=NC(=N5)c5nc(Oc6c(OCc7cn(CCOCCOCCO)nn7)cc(C)cc6OCc6cn(CCOCCOCCO)nn6)c(Oc6c(OCc7cn(CCOCCOCCO)nn7)cc(C)cc6OCc6cn(CCOCCOCCO)nn6)nc54)=NC3=N2)c(OCc2cn(CCOCCOCCO)nn2)c1` [N7Zn], the “Log P” value in series [1] is on record as “–1.60”. In series [7], the “τF1, fluorescence lifetime (relative amplitude in brackets)” value was 0.74 (5%) ns and the “τF2, fluorescence lifetime (relative amplitude in brackets)” value is 2.45 (95%) ns. In series [3], the “ε, extinction coefficient” value is recorded as 195 490 M^–1cm^–1; the “λA, absorption maximum in the Q-band” value is reported as 629 nm; the “λF, fluorescence emission maximum” value turned out to be 641 nm. The “blueshift of the Q-band vs corresponding Pc analogue” value in series [3] (pyrazine analogs vs A4Zn and N6Zn, DMF) is 35 nm. In addition, the “ΦΔ, quantum yield” value in series [4] is 0.58. Besides, the “ΦF, fluorescence quantum yield” value in series [6] came out at 0.18.
